According to patent publication US11492335B2, “Aryl or heteroaryl triazolone derivatives or salts thereof, or pharmaceutical compositions comprising the same” (YUHAN CORPORATION, priority 2018, dated 2022):
Where a name gives a salt, the structure may show the parent alone. Read-outs that look alike come from different tables or passages of the source.

How the values were obtained:
Type in all cases: biochemical
recombinant human VAP-1 = molecular target: T1, recombinant human VAP-1 (Homo sapiens, UniProt Q16853); experiment: Activity on recombinant human VAP-1, Amplex Red HRP-coupled hydrogen peroxide assay, benzylamine substrate; details: recombinant human VAP-1, benzylamine substrate, read-out: Inhibitory Activity (IC50, nM) human VAP-1
T1 construct: purchased R&D systems
T1 sequence (Q16853 1-763): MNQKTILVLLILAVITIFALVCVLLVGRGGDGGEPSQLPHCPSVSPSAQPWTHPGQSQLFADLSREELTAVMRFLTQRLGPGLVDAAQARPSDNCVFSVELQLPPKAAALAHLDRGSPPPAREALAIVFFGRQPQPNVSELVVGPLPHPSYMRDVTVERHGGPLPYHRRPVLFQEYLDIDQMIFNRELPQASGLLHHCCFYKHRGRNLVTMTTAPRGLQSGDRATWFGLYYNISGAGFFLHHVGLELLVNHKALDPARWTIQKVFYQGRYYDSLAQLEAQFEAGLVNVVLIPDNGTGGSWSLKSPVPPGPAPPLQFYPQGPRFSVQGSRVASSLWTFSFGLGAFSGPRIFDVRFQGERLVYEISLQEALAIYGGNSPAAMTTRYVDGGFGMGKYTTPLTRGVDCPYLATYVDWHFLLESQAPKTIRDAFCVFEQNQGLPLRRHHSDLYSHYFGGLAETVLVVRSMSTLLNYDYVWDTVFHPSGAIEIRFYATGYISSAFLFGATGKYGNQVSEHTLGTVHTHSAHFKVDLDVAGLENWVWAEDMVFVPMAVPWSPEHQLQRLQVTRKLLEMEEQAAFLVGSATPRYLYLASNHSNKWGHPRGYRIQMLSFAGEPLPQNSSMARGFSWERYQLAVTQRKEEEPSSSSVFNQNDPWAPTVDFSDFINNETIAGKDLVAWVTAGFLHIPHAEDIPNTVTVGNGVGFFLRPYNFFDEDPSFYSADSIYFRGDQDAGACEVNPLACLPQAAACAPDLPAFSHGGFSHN
In short: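 H2O2 generation from 1 mM benzylamine was coupled via 1 U/mL HRP to 200 uM Amplex Red; inhibitors, serially diluted 1:3 over 8 points with under 1% final DMSO, had been preincubated 30 min at 37 °C. IC50 from percentage drop in rate.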

[1] = molecular target: T2, recombinant human MAO-A (monoamine oxidase-A) (Homo sapiens, UniProt P21397); experiment: Activity on recombinant human MAO-A, Amplex Red method, 0.5 mM tyramine substrate; details: read-out: Inhibitory Activity (IC50, nM) MAO-A
T2 construct: purchased Sigma-Aldrich
T2 sequence (P21397 1-527): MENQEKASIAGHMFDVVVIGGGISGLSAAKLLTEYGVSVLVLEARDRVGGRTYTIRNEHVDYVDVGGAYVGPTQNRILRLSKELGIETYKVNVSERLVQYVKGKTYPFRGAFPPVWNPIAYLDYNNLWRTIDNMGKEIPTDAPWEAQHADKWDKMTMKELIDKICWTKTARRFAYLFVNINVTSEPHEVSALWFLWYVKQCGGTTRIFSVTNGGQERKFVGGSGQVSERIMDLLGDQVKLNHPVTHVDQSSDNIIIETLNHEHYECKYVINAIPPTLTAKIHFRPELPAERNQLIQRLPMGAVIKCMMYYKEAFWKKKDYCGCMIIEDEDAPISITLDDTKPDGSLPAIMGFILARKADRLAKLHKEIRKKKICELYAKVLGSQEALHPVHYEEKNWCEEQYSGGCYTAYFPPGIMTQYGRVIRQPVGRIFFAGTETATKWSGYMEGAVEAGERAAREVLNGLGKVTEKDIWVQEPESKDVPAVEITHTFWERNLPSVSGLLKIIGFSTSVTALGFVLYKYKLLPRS
In short: (§1)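 First, serially diluted compounds were incubated with recombinant enzyme in 50 mM sodium phosphate, pH 7.4, for 30 min at 37° C. Next, Amplex Red (200 uM), HRP (1 U/mL) and tyramine (0.5 mM, MAO-A) or benzylamine (1 mM, MAO-B) were added. Then fluorescence was monitored over 1-2 h and IC50 fitted.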

[2] = molecular target: T3, recombinant human MAO-B (monoamine oxidase-B) (Homo sapiens, UniProt P27338); experiment: Activity on recombinant human MAO-B, Amplex Red method, 1 mM benzylamine substrate; details: read-out: Inhibitory Activity (IC50, nM) MAO-B
T3 construct: purchased Sigma-Aldrich
T3 sequence (P27338 1-520): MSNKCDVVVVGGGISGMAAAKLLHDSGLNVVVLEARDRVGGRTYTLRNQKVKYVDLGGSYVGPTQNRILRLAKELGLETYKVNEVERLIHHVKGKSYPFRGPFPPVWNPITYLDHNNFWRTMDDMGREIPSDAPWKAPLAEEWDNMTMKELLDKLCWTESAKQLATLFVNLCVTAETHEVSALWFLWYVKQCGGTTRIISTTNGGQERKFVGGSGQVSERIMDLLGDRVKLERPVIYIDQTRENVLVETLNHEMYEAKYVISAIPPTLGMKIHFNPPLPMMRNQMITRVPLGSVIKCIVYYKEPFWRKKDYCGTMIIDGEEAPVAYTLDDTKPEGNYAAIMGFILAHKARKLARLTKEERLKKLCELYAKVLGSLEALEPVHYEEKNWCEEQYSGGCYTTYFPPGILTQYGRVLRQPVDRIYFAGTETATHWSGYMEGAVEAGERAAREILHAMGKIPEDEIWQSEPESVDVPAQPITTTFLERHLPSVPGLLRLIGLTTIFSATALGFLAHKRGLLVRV
In short: as §1

[3] = molecular target: T4, recombinant human DAO (diamine oxidase) (Homo sapiens, UniProt P19801); experiment: Activity on recombinant human DAO, Amplex Red method, 1 mM putrescine substrate; details: recombinant human DAO, read-out: Inhibitory Activity (IC50, nM) DAO
T4 construct: purchased R&D systems
T4 sequence (P19801 20-751): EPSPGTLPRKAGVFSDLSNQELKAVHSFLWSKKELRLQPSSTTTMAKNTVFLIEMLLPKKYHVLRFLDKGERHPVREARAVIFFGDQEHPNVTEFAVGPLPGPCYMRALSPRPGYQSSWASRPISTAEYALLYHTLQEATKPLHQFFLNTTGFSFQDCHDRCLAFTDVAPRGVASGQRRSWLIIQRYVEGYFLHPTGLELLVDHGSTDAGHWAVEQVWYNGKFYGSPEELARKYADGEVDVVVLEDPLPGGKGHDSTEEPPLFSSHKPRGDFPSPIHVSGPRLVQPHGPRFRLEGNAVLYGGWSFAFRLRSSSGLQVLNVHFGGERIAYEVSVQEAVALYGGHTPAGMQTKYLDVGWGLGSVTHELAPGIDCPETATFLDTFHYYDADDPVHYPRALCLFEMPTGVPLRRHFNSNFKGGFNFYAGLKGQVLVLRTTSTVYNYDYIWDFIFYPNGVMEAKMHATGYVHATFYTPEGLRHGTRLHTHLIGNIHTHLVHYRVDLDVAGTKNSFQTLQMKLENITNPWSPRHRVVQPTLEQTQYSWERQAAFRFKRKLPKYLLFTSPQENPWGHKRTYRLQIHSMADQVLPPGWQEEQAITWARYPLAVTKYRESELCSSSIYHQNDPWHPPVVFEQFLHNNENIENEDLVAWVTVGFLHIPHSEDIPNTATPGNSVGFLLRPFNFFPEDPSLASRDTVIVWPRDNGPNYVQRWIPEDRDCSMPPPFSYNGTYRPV
In short: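 Inhibition of recombinant human DAO (diamine oxidase, R&D systems) was assessed with the Amplex Red Hydrogen Peroxide Assay Kit. Hydrogen peroxide produced from 1 mM putrescine was detected through an HRP-coupled reaction that converts Amplex Red into fluorescent resorufin, read at 544 nm excitation and 590 nm emission. IC50 values came from four-parameter logistic fits in GraphPad Prism.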

[4] = 1 mM putrescine, * = between 10 and 100 nM, ** = between 300 and 1000 nM

Row | SMILES | IC50 (recombinant human VAP-1; 30 min preincubation at 37° C.) [nM] | IC50 ([1]; 0.5 mM tyramine) [nM] | IC50 ([2]; 1 mM benzylamine) [nM] | IC50 [3, 4] [nM] | IC50 (recombinant human VAP-1) [nM] | IC50 ([1]; 0.5 mM tyramine substrate) [nM] | IC50 ([2]; 1 mM benzylamine substrate) [nM] | IC50 ([3]; 1 mM putrescine substrate) [nM]
1 | NC/C(=C\F)Cn1ncn(-c2cccc(-c3cccc(-c4ccc5c(c4)OCO5)c3)c2)c1=O [Example 71, 2-[(2E)-2-(aminomethyl)-3-fluoroprop-2-en-1-yl]-4-[3′-(1,3-benzodioxol-5-yl)biphenyl-3-yl]-2,4-dihydro-3H-1,2,4-triazol-3-one hydrochloride] | 1 | 17300 | 240 | < 30 |  |  |  | 
2 | CC(=O)c1ccc(-c2cnc(-n3cnn(C/C(=C/F)CN)c3=O)c(C)c2)s1 [Example 132, 4-[5-(5-acetylthiophen-2-yl)-3-methylpyridin-2-yl]-2-[(2E)-2-(aminomethyl)-3-fluoroprop-2-en-1-yl]-2,4-dihydro-3H-1,2,4-triazol-3-one hydrochloride] | 0.54 | 62000 | 850 | 280 |  |  |  | 
3 | Cc1cc(-c2ccc(-c3ncon3)cc2)cnc1-n1cnn(C/C(=C/F)CN)c1=O [Example 139, 2-[(2E)-2-(aminomethyl)-3-fluoroprop-2-en-1-yl]-4-{3-methyl-5-[4-(1,2,4-oxadiazol-3-yl)phenyl]pyridin-2-yl}-2,4-dihydro-3H-1,2,4-triazol-3-one] | 0.53 | > 100000 | 394 | 370 |  |  |  | 
4 | NC/C(=C\F)Cn1ncn(-c2cccc(-c3ccc(N4CCCC4)cc3)n2)c1=O [Example 183, 2-[(2E)-2-(aminomethyl)-3-fluoroprop-2-en-1-yl]-4-{6-[4-(pyrrolidin-1-yl)phenyl]pyridin-2-yl}-2,4-dihydro-3H-1,2,4-triazol-3-one hydrochloride] |  |  |  |  | 2.5 | 13000 | > 10000 | 350
5 | NC/C(=C\F)Cn1ncn(-c2cccc(-c3ccc4c(c3)OCO4)n2)c1=O [Example 193, 2-[(2E)-2-(aminomethyl)-3-fluoroprop-2-en-1-yl]-4-[6-(1,3-benzodioxol-5-yl)pyridin-2-yl]-2,4-dihydro-3H-1,2,4-triazol-3-one] |  |  |  |  | 2.5 | > 100000 | 1160 | 38
6 | NC/C(=C/F)Cn1ncn(-c2ccc(OCc3ccccc3)cc2)c1=O [Example 7, 2-[(2Z)-2-(aminomethyl)-3-fluoroprop-2-en-1-yl]-4-[4-(benzyloxy)phenyl]-2,4-dihydro-3H-1,2,4-triazol-3-one] | 0.88 | 2100 | 8 | 47 |  |  |  | 
7 | NC/C(=C\F)Cn1ncn(-c2cc(-c3ccc4c(c3)OCCO4)ccn2)c1=O [Example 171, 2-[(2E)-2-(aminomethyl)-3-fluoroprop-2-en-1-yl]-4-[4-(2,3-dihydro-1,4-benzodioxin-6-yl)pyridin-2-yl]-2,4-dihydro-3H-1,2,4-triazol-3-one] |  |  |  |  | 0.84 | > 100000 | 1540 | < 30
8 | Cc1cc(-c2ccc3c(c2)NC(=O)CO3)cnc1-n1cnn(C/C(=C/F)CN)c1=O [Example 155, 6-(6-{1-[(2E)-2-(aminomethyl)-3-fluoroprop-2-en-1-yl]-5-oxo-1,5-dihydro-4H-1,2,4-triazol-4-yl}-5-methylpyridin-3-yl)-2H-1,4-benzoxazin-3 (4H)-one hydrochloride] |  |  |  |  | 0.3 | 16000 | 4400 | 87
9 | NC/C(=C\F)Cn1ncn(-c2cccc(-c3ccc4nonc4c3)c2)c1=O [Example 96, 2-[(2E)-2-(aminomethyl)-3-fluoroprop-2-en-1-yl]-4-[3-(2,1,3-benzooxadiazol-5-yl)phenyl]-2,4-dihydro-3H-1,2,4-triazol-3-one hydrochloride] | 0.51 | > 100000 | 390 | < 100 |  |  |  | 
10 | Cc1cc(-n2cnn(C/C(=C\F)CN)c2=O)cnc1Br [Example 26, 2-[(2Z)-2-(aminomethyl)-3-fluoroprop-2-en-1-yl]-4-(6-bromo-5-methylpyridin-3-yl)-2,4-dihydro-3H-1,2,4-triazol-3-one hydrochloride] | 5.3 | > 100000 | 9.4 | 14 |  |  |  | 
11 | NC/C(=C\F)Cn1ncn(-c2cnc(-c3ccc4sc(N)nc4c3)cn2)c1=O [Example 224, 4-[5-(2-amino-1,3-benzothiazol-5-yl)pyrazin-2-yl]-2-[(2E)-2-(aminomethyl)-3-fluoroprop-2-en-1-yl]-2,4-dihydro-3H-1,2,4-triazol-3-one] |  |  |  |  | 1.3 | > 100000 | 49 | < 100
12 | NC/C(=C\F)Cn1ncn(-c2cccc(-c3cccc4[nH]c(=O)ccc34)n2)c1=O [Example 201, 5-(6-{1-[(2E)-2-(aminomethyl)-3-fluoroprop-2-en-1-yl]-5-oxo-1,5-dihydro-4H-1,2,4-triazol-4-yl}pyridin-2-yl)quinolin-2(1H)-one hydrochloride] |  |  |  |  | 1.3 | > 100000 | > 10000 | 17
